From US8378115B2, “Monomethine dyes” (Thermo Fisher Scientific (Milwaukee) LLC, priority 2007, dated 2013) come the findings set out here.

The subject of data set [1] is λDNA. In words: Fluorescence enhancement of dye with λDNA. Format: binding. The following applies: for Fluorescence relative to TO / Fluorescence λ DNA/ssDNA: 0.8 μM dye, 3.2 μM DNA, one minute; for Ratio λ DNA/ss: fluorescence λ DNA vs ss-DNA; for Relative Fluorescent Intensity: λ DNA, TO = 1.0. As for the experimental part: (§1) Stock solutions (8 mM) of each dye were prepared by dissolving each compound in dimethylsulfoxide (DMSO). Stock dye solutions were diluted to a desired concentration in tris-EDTA (TE) buffer (10 mM Tris, 1 mM EDTA, pH 8.0) immediately prior to use.
(§2) Stock solutions of λDNA and 40mer synthetic oligonucleotides (dsDNA and ssDNA), each at a concentration of 40 μM, were prepared in TE buffer. All DNA concentrations described are in base pairs of nucleotides. The DNA stock solutions were diluted to a desired concentration in TE buffer before being mixed with diluted dye solutions.
(§3) Fluorescence enhancement measurements of each dye were obtained by incubating dyes with λDNA, 40mer dsDNA, or 40mer ssDNA at a final concentration of 0.8 μM dye and 3.2 μM DNA for one minute. Fluorescence scans of the samples were performed with excitation wavelengths corresponding to the absorption maxima of the dyes. The resulting fluorescence intensities were compared to fluorescence intensities of Thiazole Orange (TO) and a compound equivalent to SYBR Green without the side chain (V02-06101), shown below,
(§4) [drawing 15] binding to λDNA, 40mer dsDNA, or 40mer ssDNA at a final concentration of 0.8 μM TO and 3.2 μM DNA for one minute, the same as for the tested dyes. The discrimination ratio between dsDNA and ssDNA was calculated by comparing the fluorescence intensities.

The nature of data set [2]: Absorption spectra of dye alone. The following applies: for ε: in M-1·cm-1 (unit assumed). In kind it is physicochemical. On the procedure:
as §1
[…] […] Optical densities were determined at the absorbance maxima and the extinction coefficients were calculated using Beer's law.

Data set [3] relates to 40mer dsDNA. In words: Fluorescence enhancement of dye with 40mer dsDNA. Format: binding. The following applies: for Relative Fluorescent Intensity: 40-mer ds-DNA, TO = 1.0; for Ratio ds/ss: fluorescence 40-mer ds-DNA vs ss-DNA. As for the experimental part: as §1, §2, §3, §4
Data set [4] concerns rRNA. The data set is described as follows: Fluorescence of dye with rRNA. Format: binding. The following applies: for Ratio rRNA/ds: fluorescence rRNA vs 40-mer ds-DNA; for Ratio rRNA/ss: fluorescence rRNA vs 40-mer ss-DNA.

In the case of `CCN1C(=Cc2cc(-c3ccccc3)[o+]c3cc(OC)ccc23)Oc2ccccc21` [Dye V02-06135], in data set [1], the “Fluorescence relative to TO” value is recorded as “None” and the “Fluorescence λ DNA/ssDNA” value is given as “None”. In addition, in data set [2] (Ethanol), the λex was 464 nm and the ε is given as 43,000.
As for `CCN(CC)c1ccc2c(N(C)CCCN(C)C)cc(/C=C3\Sc4ccccc4N3C)[o+]c2c1` [Dye V02-07108], in data set [1], the “Fluorescence relative to TO” value is on record as 3.1, the “Fluorescence λ DNA/ssDNA” value came out at 1.8, the “Ratio λ DNA/ss” value was 1.9 and the “Relative Fluorescent Intensity” value is on record as 3.1. Further, in data set [3], the “Relative Fluorescent Intensity” value was found to be 3.5 and the Ratio ds/ss stood at 1.4. Moreover, in data set [4], the “Ratio rRNA/ds” value came to 0.8 and the “Ratio rRNA/ss” value was 1.1. In addition, in data set [2] (Ethanol), the λex was 498 nm and the ε was 46,000. For the same molecule, in data set [2] (TE Buffer, 8 μM dye), the λex is 496 nm and the ε is listed as 27,418.
For the molecule `CCN(CC)c1ccc2c(/C=C3\Sc4ccccc4N3C)cc(N3CCN(CCO)CC3)[o+]c2c1` [Dye V13-01184], in data set [1], the “Fluorescence relative to TO” value came to 5.3, the “Fluorescence λ DNA/ssDNA” value was determined as 6.1, the “Ratio λ DNA/ss” value was found to be 2.0 and the “Relative Fluorescent Intensity” value is on record as 5.3. In addition, in data set [3], the “Relative Fluorescent Intensity” value is on record as 6.1 and the Ratio ds/ss came to 1.4. Further, in data set [4], the “fluorescence enhancement when bound with RNA” value is “significant fluorescence enhancement”, the “Ratio rRNA/ds” value is 1.0 and the “Ratio rRNA/ss” value turned out to be 1.4. In data set [2] (Ethanol), the λex is 480 nm and the ε is listed as 83,000. In data set [2] (TE Buffer, 8 μM dye), the λex amounted to 455 nm and the ε is given as 40,321.
For the molecule `C[n+]1c(/C=C2\C=CN(c3ccccc3)c3ccccc32)sc2ccccc21` [Dye V02-06101, reference compound], in data set [1], the “Fluorescence relative to TO” value was determined as 0.8 and the “Fluorescence λ DNA/ssDNA” value is 4.1.
Turning to `CCN1c2cc3[o+]c(N(C)CCCN(C)C)cc(/C=C4\Sc5ccccc5N4C)c3cc2C(C)=CC1(C)C` [Dye V12-02144], in data set [1], the “Fluorescence relative to TO” value is on record as 3.6, the “Fluorescence λ DNA/ssDNA” value turned out to be 2.8, the “Ratio λ DNA/ss” value is on record as 2.0 and the “Relative Fluorescent Intensity” value was 1.7. Moreover, in data set [3], the “Relative Fluorescent Intensity” value worked out at 2.7 and the Ratio ds/ss was found to be 2.1. In addition, in data set [4], the “Ratio rRNA/ds” value was determined as 0.7 and the “Ratio rRNA/ss” value came out at 1.5. In addition, in data set [2] (Ethanol), the λex was 492 nm and the ε is 49,000. Also, in data set [2] (TE Buffer, 8 μM dye), the λex came out at 484 nm and the ε is on record as 28,355.
As to `CN1C(=Cc2cc[n+](C)c3ccccc23)Sc2ccccc21` [TO, Thiazole Orange, reference compound], in data set [1], the “Fluorescence relative to TO” value is given as 1, the “Fluorescence λ DNA/ssDNA” value amounted to 3.3, the “Ratio λ DNA/ss” value turned out to be 5.6 and the “Relative Fluorescent Intensity” value is on record as 1.0. Also, in data set [3], the “Relative Fluorescent Intensity” value is recorded as 1.0 and the Ratio ds/ss worked out at 3.5. Further, in data set [4], the “Ratio rRNA/ds” value is 0.8 and the “Ratio rRNA/ss” value is given as 2.3. In data set [2] (Ethanol), the λex is given as 501 nm and the ε is listed as 77,000. Further, in data set [2] (TE Buffer, 8 μM dye), the λex worked out at 501 nm and the ε is listed as 52,773.
Take `CCN(CC)c1ccc2c(c1)O/C(=C\c1cc(N(C)CCCN(C)C)[o+]c3cc(N(CC)CC)ccc13)C=C2C` [Dye V13-01026]: in data set [1], the “Fluorescence relative to TO” value came out at 0.9, the “Fluorescence λ DNA/ssDNA” value is listed as 1.4, the “Ratio λ DNA/ss” value came to 1.4 and the “Relative Fluorescent Intensity” value is 0.9. Moreover, in data set [3], the “Relative Fluorescent Intensity” value was 1.0 and the Ratio ds/ss is 0.7. Besides, in data set [2] (Ethanol), the λex was determined as 585 nm and the ε was 48,000. Moreover, in data set [2] (TE Buffer, 8 μM dye), the λex was 543 nm and the ε is recorded as 25,013.
For `CCCN(CCCN(C)C)C1=C/C(=C\c2sc3ccccc3[n+]2C)c2ccccc2N1c1ccccc1` [SYBR Green, reference compound], in data set [1], the “Fluorescence relative to TO” value worked out at 10.6, the “Fluorescence λ DNA/ssDNA” value amounted to 8.3, the “Ratio λ DNA/ss” value stood at 8.3 and the “Relative Fluorescent Intensity” value is given as 10.6. Moreover, in data set [3], the “Relative Fluorescent Intensity” value is 15.0 and the Ratio ds/ss was determined as 7.5. Moreover, in data set [4], the “Ratio rRNA/ds” value was 0.3 and the “Ratio rRNA/ss” value was 1.0. In data set [2] (TE Buffer, 8 μM dye), the λex is 494 nm and the ε was 73,000.
With `CCN(CC)c1ccc2c(/C=C3\Sc4ccccc4N3C)cc(N(C)CCC[N+](C)(C)C)[o+]c2c1` [Dye V11-02190], in data set [1], the “Ratio λ DNA/ss” value was 3.1 and the “Relative Fluorescent Intensity” value was determined as 1.9. Further, in data set [3], the “Relative Fluorescent Intensity” value is recorded as 1.7 and the Ratio ds/ss is reported as 1.9. In data set [4], the “Ratio rRNA/ds” value came out at 0.7 and the “Ratio rRNA/ss” value stood at 1.4. In data set [2] (Ethanol), the λex is 481 nm and the ε was 25,600. Moreover, in data set [2] (TE Buffer, 8 μM dye), the λex was determined as 477 nm and the ε is 16,940.
Regarding `CCN(CC)c1ccc2c(C=C3Sc4ccccc4N3CC)cc(C(C)(C)C)[o+]c2c1` [Dye V02-06124], in data set [1], the “Fluorescence relative to TO” value is 0.5, the “Fluorescence λ DNA/ssDNA” value was found to be 1.6, the “Ratio λ DNA/ss” value was found to be 1.6 and the “Relative Fluorescent Intensity” value was 0.5. In data set [3], the “Relative Fluorescent Intensity” value stood at 0.3 and the Ratio ds/ss came out at 1.2. Further, in data set [2] (Ethanol), the λex worked out at 530 nm and the ε is listed as 85,000. Moreover, in data set [2] (TE Buffer, 8 μM dye), the λex is recorded as 515 nm and the ε is 46,625.
On to `CCN(CC)c1ccc2c(/C=C3\Sc4ccccc4N3CC)cc(-c3ccccc3)[o+]c2c1` [Dye V02-06187], for which, in data set [1], the “Fluorescence relative to TO” value is given as 0.7, the “Fluorescence λ DNA/ssDNA” value was found to be 6.7, the “Ratio λ DNA/ss” value came to 5.2 and the “Relative Fluorescent Intensity” value was 0.7. In data set [3], the “Relative Fluorescent Intensity” value is 0.5 and the Ratio ds/ss amounted to 2.1. In addition, in data set [2] (Ethanol), the λex worked out at 550 nm and the ε is 55,000. In addition, in data set [2] (TE Buffer, 8 μM dye), the λex was determined as 524 nm and the ε is listed as 19,668.
As for `CCN(CCCN(C)C)c1ccc2c(/C=C3\Sc4ccccc4N3CC)cc(C(C)(C)C)[o+]c2c1` [Dye V02-07015], in data set [1], the “Fluorescence relative to TO” value is recorded as 4.0, the “Fluorescence λ DNA/ssDNA” value amounted to 3.7, the “Ratio λ DNA/ss” value was found to be 3.7 and the “Relative Fluorescent Intensity” value came to 4.0. Besides, in data set [3], the “Relative Fluorescent Intensity” value came to 4.0 and the Ratio ds/ss is on record as 2.3. Moreover, in data set [2] (Ethanol), the λex is listed as 522 nm and the ε is reported as 50,000. Further, in data set [2] (TE Buffer, 8 μM dye), the λex amounted to 515 nm and the ε is given as 37,365.
`CCN(CC)c1ccc2c(C=C3Oc4ccccc4N3CC)cc(C(C)(C)C)[o+]c2c1` [Dye V02-06136]: in data set [1], the “Fluorescence relative to TO” value came to 0.17, the “Fluorescence λ DNA/ssDNA” value turned out to be 1, the “Ratio λ DNA/ss” value is 1 and the “Relative Fluorescent Intensity” value was 0.17. In data set [3], the “Relative Fluorescent Intensity” value turned out to be 0.3 and the Ratio ds/ss is given as 1.8. Moreover, in data set [2] (Ethanol), the λex came to 499 nm and the ε is 72,000. In data set [2] (TE Buffer, 8 μM dye), the λex worked out at 492 nm and the ε was 35,925.
`CCN1C(=Cc2cc(-c3ccccc3)[o+]c3cc(OC)ccc23)Sc2ccccc21` [Dye V02-06132]: in data set [1], the “Fluorescence relative to TO” value is listed as “None” and the “Fluorescence λ DNA/ssDNA” value was “None”. Also, in data set [2] (Ethanol), the λex is reported as 488 nm and the ε is reported as 43,000. In addition, in data set [2] (TE Buffer, 8 μM dye), the λex is 480 nm and the ε was 18,850.
